# Laboratory results: patent US20250282799A1, “SUBSTITUTED PYRIDO[4,3-d]PYRIMIDINES AS KRAS MODULATORS” (Alterome Therapeutics, Inc., priority 2023, published 2025)
# Test system: KRAS G12V dependent lung adenocarcinoma cell line, NCI-H441
# Experiment: Cellular pERK (Thr202/Tyr204) FRET/HTRF assay
# Format: cell-based
# Settings: Homo sapiens, NCI-H441, cellular pERK (Thr202/Tyr204) HTRF, NCI-H441 cells
# In short: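 Adherent NCI-H441 cells, plated the previous night, receive test compound for one hour at 37 °C. They are then lysed with a buffer containing phosphatase inhibitors and incubated at room temperature with Eu3+-cryptate and d2 labelled anti-pERK antibodies. HTRF signal gives IC50 by curve fitting.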
row,Compound,IC50
1,"[2H]C([2H])(Oc1nc(N2CCOC[C@H]3[C@H](F)[C@H]32)c2cnc(-c3cc(N)c(F)c(C4CC4)c3C(F)(F)F)c(F)c2n1)[C@@]12CCCN1C[C@H](F)C2 [Example 270, 3-cyclopropyl-2-fluoro-5-(8-fluoro-4-((1S,7S,8S)-8-fluoro-5-oxa-2-azabicyclo[5.1.0]octan-2-yl)-2-(((2R,7aS)-2-fluorotetrahydro-1H-pyrrolizin-7a(5H)-yl)methoxy-d2)pyrido[4,3-d]pyrimidin-7-yl)-4-(trifluoromethyl)aniline]",0.05 to 0.5 µM
2,"[2H]C([2H])(Oc1nc(N2CCOC[C@H]3[C@H](F)[C@H]32)c2cc(Cl)c(-c3ccc(F)c4sc(N)c(C#N)c34)c(F)c2n1)[C@@]12CCCN1C[C@H](F)C2 (atropisomer, axis not shown; (aS)) [Example 352, 2-amino-4-((S)-6-chloro-8-fluoro-4-((1S,7S,8S)-8-fluoro-5-oxa-2-azabicyclo[5.1.0]octan-2-yl)-2-(((2R,7aS)-2-fluorotetrahydro-1H-pyrrolizin-7a(5H)-yl)methoxy-d2)quinazolin-7-yl)-7-fluorobenzo[b]thiophene-3-carbonitrile]",0.5 to 10 µM
3,"[2H]C([2H])([2H])Oc1c(F)c(F)c(F)c2cccc(-c3ncc4c(N5CCCC[C@H]6[C@H](F)[C@H]65)nc(OC([2H])([2H])[C@@]56CCCN5C[C@H](F)C6)nc4c3F)c12 [Example 110, 8-fluoro-4-((1S,7R,8S)-8-fluoro-2-azabicyclo[5.1.0]octan-2-yl)-2-(((2R,7aS)-2-fluorotetrahydro-1H-pyrrolizin-7a(5H)-yl)methoxy-d2)-7-(5,6,7-trifluoro-8-(methoxy-d3)naphthalen-1-yl)pyrido[4,3-d]pyrimidine]",0.5 to 10 µM
4,"[2H]C([2H])(Oc1nc(N2CC[C@H](C#N)C[C@H]3[C@H](F)[C@H]32)c2cnc(-c3cc(N)cc4ccc(F)c(C#C)c34)c(F)c2n1)[C@@]12CCCN1C[C@H](F)C2 [Example 306, (1S,5R,7R,8S)-2-(7-(3-amino-8-ethynyl-7-fluoronaphthalen-1-yl)-8-fluoro-2-(((2R,7aS)-2-fluorotetrahydro-1H-pyrrolizin-7a(5H)-yl)methoxy-d2)pyrido[4,3-d]pyrimidin-4-yl)-8-fluoro-2-azabicyclo[5.1.0]octane-5-carbonitrile]",0.05 to 0.5 µM
5,"[2H]C([2H])(Oc1nc(N2CCOC[C@@H]3[C@@H](Cl)[C@@H]32)c2cnc(-c3cc(N)cc4cccc(C#C)c34)c(F)c2n1)[C@@]12CCCN1[C@H](C)[C@H](F)C2 [Example 346, 4-(4-((1R,7R,8R)-8-chloro-5-oxa-2-azabicyclo[5.1.0]octan-2-yl)-8-fluoro-2-(((2R,3R,7aS)-2-fluoro-3-methyltetrahydro-1H-pyrrolizin-7a(5H)-yl)methoxy-d2)pyrido[4,3-d]pyrimidin-7-yl)-5-ethynylnaphthalen-2-amine]",0.5 to 10 µM
6,"Nc1cc(Cl)c(C(F)(F)F)c(-c2ncc3c(N4CCCC[C@@H]5[C@@H](F)[C@@H]54)nc(OC[C@@]45CCCN4C/C(=C/F)C5)nc3c2F)c1 [Example 372, 3-chloro-5-(8-fluoro-4-((1R,7S,8R)-8-fluoro-2-azabicyclo[5.1.0]octan-2-yl)-2-(((S,E)-2-(fluoromethylene)tetrahydro-1H-pyrrolizin-7a(5H)-yl)methoxy)pyrido[4,3-d]pyrimidin-7-yl)-4-(trifluoromethyl)aniline]",0.5 to 10 µM

# Continued, values first:
row,IC50,Compound
1,< 0.05 µM,"Nc1cc(Cl)c(C(F)(F)F)c(-c2ncc3c(N4CCCC[C@H]5[C@H](F)[C@H]54)nc(OC[C@]45C/C(=C/F)CN4CCC54CC4)nc3c2F)c1 [Example 406, 3-chloro-5-(8-fluoro-4-((1S,7R,8S)-8-fluoro-2-azabicyclo[5.1.0]octan-2-yl)-2-(((R,Z)-6′-(fluoromethylene)tetrahydrospiro [cyclopropane-1,1′-pyrrolizin]-7a′(5′H)-yl)methoxy)pyrido[4,3-d]pyrimidin-7-yl)-4-(trifluoromethyl)aniline]"
2,< 0.05 µM,"[2H]C([2H])([2H])Oc1c(F)c(F)c(F)c2cc(N)cc(-c3ncc4c(N5CCOC[C@H]6[C@H](F)[C@H]65)nc(OC[C@@]56CC(=C)CN5CCC65CC5)nc4c3F)c12 [Example 121, 6,7,8-trifluoro-4-(8-fluoro-4-((1S,7S,8S)-8-fluoro-5-oxa-2-azabicyclo[5.1.0]octan-2-yl)-2-(((S)-6′-methylenetetrahydrospiro[cyclopropane-1,1′-pyrrolizin]-7a′(5′H)-yl)methoxy)pyrido[4,3-d]pyrimidin-7-yl)-5-(methoxy-d3)naphthalen-2-amine]"
3,< 0.05 µM,"[2H]C([2H])([2H])Oc1c(F)c(F)c(F)c2cc(N)cc(-c3ncc4c(N5CCOC[C@H]6[C@H](F)[C@H]65)nc(OC[C@]56CC(=C)CN5CCC65CC5)nc4c3F)c12 [Example 120, 6,7,8-trifluoro-4-(8-fluoro-4-((1S,7S,8S)-8-fluoro-5-oxa-2-azabicyclo[5.1.0]octan-2-yl)-2-(((R)-6′-methylenetetrahydrospiro[cyclopropane-1,1′-pyrrolizin]-7a′(5′H)-yl)methoxy)pyrido[4,3-d]pyrimidin-7-yl)-5-(methoxy-d3)naphthalen-2-amine]"
4,< 0.05 µM,"C#Cc1c(F)ccc2cccc(-c3ncc4c(N5CCOC[C@H]6[C@H](F)[C@H]65)nc(OC[C@]56CC(=C)CN5CCC65CC5)nc4c3F)c12 [Example 166, (1S,7S,8S)-2-(7-(8-Ethynyl-7-fluoronaphthalen-1-yl)-8-fluoro-2-(((R)-6′-methylenetetrahydrospiro[cyclopropane-1,1′-pyrrolizin]-7a′(5′H)-yl)methoxy)pyrido[4,3-d]pyrimidin-4-yl)-8-fluoro-5-oxa-2-azabicyclo[5.1.0]octane]"
5,< 0.05 µM,"[2H]C([2H])(Oc1nc(N2CCOC[C@H]3[C@H](F)[C@H]32)c2cnc(-c3cc(N)cc4ccc(F)c(C#C)c34)c(C)c2n1)[C@@]12CCCN1C[C@H](F)C2 [Example 329, 5-Ethynyl-6-fluoro-4-(4-((1S,7S,8S)-8-fluoro-5-oxa-2-azabicyclo[5.1.0]octan-2-yl)-2-(((2R,7aS)-2-fluorotetrahydro-1H-pyrrolizin-7a(5H)-yl)methoxy-d2)-8-methylpyrido[4,3-d]pyrimidin-7-yl)naphthalen-2-amine]"
6,< 0.05 µM,"C#Cc1c(F)ccc2cccc(-c3ncc4c(N5CCOC[C@H]6[C@H](F)[C@H]65)nc(OC[C@@]56CCCN5C/C(=C/F)C6)nc4c3F)c12 [Example 129, (1S,7S,8S)-2-(7-(8-Ethynyl-7-fluoronaphthalen-1-yl)-8-fluoro-2-(((S,E)-2-(fluoromethylene)tetrahydro-1H-pyrrolizin-7a(5H)-yl)methoxy)pyrido[4,3-d]pyrimidin-4-yl)-8-fluoro-5-oxa-2-azabicyclo[5.1.0]octane]"
7,< 0.05 µM,"[2H]C([2H])(F)Oc1c(F)c(F)cc2cc(N)cc(-c3ncc4c(N5CCOC[C@H]6[C@H](F)[C@H]65)nc(OC[C@@]56CCCN5CC(=C)C6)nc4c3F)c12 [Example 144, 6,7-difluoro-4-(8-fluoro-4-((1S,7S,8S)-8-fluoro-5-oxa-2-azabicyclo[5.1.0]octan-2-yl)-2-(((S)-2-methylenetetrahydro-1H-pyrrolizin-7a(5H)-yl)methoxy)pyrido[4,3-d]pyrimidin-7-yl)-5-(fluoromethoxy-d2)naphthalen-2-amine]"
8,< 0.05 µM,"[2H]C1([2H])CC[C@@]2(C([2H])([2H])Oc3nc(N4CCOC[C@H]5[C@H](F)[C@H]54)c4cnc(-c5cc(N)cc6ccc(F)c(C#C)c56)c(F)c4n3)C[C@@]3(C[C@@H]3F)CN12 (single isomer, unassigned) [Example 275]"

# Same assay, conditions: Homo sapiens, NCI-H441, cellular pERK HTRF, NCI-H441 (KRAS G12V) cells
row,IC50,Compound
1,< 0.05 µM,"C#Cc1c(F)ccc2cc(N)cc(-c3ncc4c(N5CCOC[C@H]6[C@H](Cl)[C@H]65)nc(OC[C@]56CC(=C)CN5CCC65CC5)nc4c3C)c12 [Example 459, 4-(4-((1S,7S,8S)-8-Chloro-5-oxa-2-azabicyclo[5.1.0]octan-2-yl)-8-methyl-2-(((R)-6′-methylenetetrahydrospiro[cyclopropane-1,1′-pyrrolizin]-7a′(5′H)-yl)methoxy)pyrido[4,3-d]pyrimidin-7-yl)-5-ethynyl-6-fluoronaphthalen-2-amine]"
2,< 0.05 µM,"[2H]C([2H])(Oc1nc(N2CCCC[C@H]3[C@H](F)[C@H]32)c2cnc(-c3cc(O)cc4ccc(F)c(C#C)c34)c(F)c2n1)[C@@]12CCCN1[C@H](C)[C@H](F)C2 [Example 474, 5-ethynyl-6-fluoro-4-(8-fluoro-2-(((2R,3R,7aS)-2-fluoro-3-methyltetrahydro-1H-pyrrolizin-7a(5H)-yl)methoxy-d2)-4-((1S,7R,8S)-8-fluoro-2-azabicyclo[5.1.0]octan-2-yl)pyrido[4,3-d]pyrimidin-7-yl)naphthalen-2-ol]"

# Same assay, conditions: Homo sapiens, NCI-H441, pERK HTRF, NCI-H441 cells (KRAS G12V)
row,IC50,Compound
1,< 0.05 µM,"[2H]C([2H])(F)Oc1c(F)ccc2cccc(-c3ncc4c(N5CCOC[C@H]6[C@H](F)[C@H]65)nc(OC([2H])([2H])[C@@]56CCCN5C[C@H](F)C6)nc4c3F)c12 [Example 80, (1S,7S,8S)-8-Fluoro-2-(8-fluoro-7-(7-fluoro-8-(fluoromethoxy-d2)naphthalen-1-yl)-2-(((2R,7aS)-2-fluorotetrahydro-1H-pyrrolizin-7a(5H)-yl)methoxy-d2)pyrido[4,3-d]pyrimidin-4-yl)-5-oxa-2-azabicyclo[5.1.0]octane]"

# Same assay, conditions: cellular pERK (Thr202/Tyr204) HTRF, NCI-H441 cells
row,IC50,Compound
1,< 0.05 µM,"[2H]C([2H])(Oc1nc(N2CCOC[C@H]3[C@H](Cl)[C@H]32)c2cc(C(F)(F)F)c(-c3ccc(F)c4sc(N)c(C#N)c34)c(F)c2n1)[C@@]12CCCN1C[C@H](F)C2 (atropisomer, axis not shown; (aS)) [Example 420, 2-amino-4-((S)-4-((1S,7S,8S)-8-chloro-5-oxa-2-azabicyclo[5.1.0]octan-2-yl)-8-fluoro-2-(((2R,7aS)-2-fluorotetrahydro-1H-pyrrolizin-7a(5H)-yl)methoxy-d2)-6-(trifluoromethyl)quinazolin-7-yl)-7-fluorobenzo[b]thiophene-3-carbonitrile]"
